From patent US10494355B2, “Oxadiazole amine derivative compounds as histone deacetylase 6 inhibitor, and the pharmaceutical composition comprising the same” (Chong Kun Dang Pharmaceutical Corp., priority 2015, dated 2019)

Assays:
human recombinant HDAC6 = biological target: T1, human recombinant HDAC6 (Homo sapiens, UniProt Q9UBN7); assay: HDAC6 enzyme activity inhibition assay (HDAC Fluorimetric Drug Discovery Kit); type: biochemical; conditions: 30° C. 60 minutes
T1 construct: purchased Calbiochem 382180
T1 sequence (Q9UBN7 1-1215): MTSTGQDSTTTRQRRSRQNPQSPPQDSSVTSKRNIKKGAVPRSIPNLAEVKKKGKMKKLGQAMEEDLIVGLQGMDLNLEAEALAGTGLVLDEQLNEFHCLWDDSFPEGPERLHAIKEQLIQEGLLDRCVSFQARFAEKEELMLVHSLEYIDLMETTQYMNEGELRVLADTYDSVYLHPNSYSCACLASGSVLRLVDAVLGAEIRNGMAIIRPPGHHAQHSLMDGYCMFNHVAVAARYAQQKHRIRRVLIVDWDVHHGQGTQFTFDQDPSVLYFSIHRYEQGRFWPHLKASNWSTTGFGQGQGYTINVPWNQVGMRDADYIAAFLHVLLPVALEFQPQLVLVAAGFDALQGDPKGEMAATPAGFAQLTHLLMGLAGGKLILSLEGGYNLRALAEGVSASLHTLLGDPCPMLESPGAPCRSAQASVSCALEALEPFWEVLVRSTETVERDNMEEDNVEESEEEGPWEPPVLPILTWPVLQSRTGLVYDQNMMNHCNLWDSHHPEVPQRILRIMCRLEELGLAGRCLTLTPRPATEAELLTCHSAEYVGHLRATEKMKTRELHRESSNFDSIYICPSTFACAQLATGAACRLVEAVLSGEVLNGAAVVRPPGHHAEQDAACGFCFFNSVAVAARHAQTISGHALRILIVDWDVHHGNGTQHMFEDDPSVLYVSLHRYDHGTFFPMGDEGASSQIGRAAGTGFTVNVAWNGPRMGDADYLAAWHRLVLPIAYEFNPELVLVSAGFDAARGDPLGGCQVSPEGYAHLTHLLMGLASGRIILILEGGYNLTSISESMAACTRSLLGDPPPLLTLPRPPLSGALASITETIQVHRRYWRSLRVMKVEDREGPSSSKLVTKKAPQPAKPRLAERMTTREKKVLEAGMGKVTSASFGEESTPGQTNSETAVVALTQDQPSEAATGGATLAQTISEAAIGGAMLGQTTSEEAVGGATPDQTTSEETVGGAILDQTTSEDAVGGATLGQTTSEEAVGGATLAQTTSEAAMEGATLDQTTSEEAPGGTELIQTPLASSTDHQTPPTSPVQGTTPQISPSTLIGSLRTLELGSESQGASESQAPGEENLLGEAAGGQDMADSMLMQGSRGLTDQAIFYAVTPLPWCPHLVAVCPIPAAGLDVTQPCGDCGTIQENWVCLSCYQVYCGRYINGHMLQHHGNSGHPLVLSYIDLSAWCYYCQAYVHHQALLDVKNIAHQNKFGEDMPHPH
Protocol: (§1) In order to examine the HDAC6 selectivity of the compounds of formula I of the present invention by HDAC1 and HDAC6 enzymatic activity inhibition assays, an experiment was performed using a conventional substance as a control.
(§2) HDAC enzyme activity was measured using a HDAC Fluorimetric Drug Discovery Kit (BML-AK511, 516, Enzo Life Science). For the HDAC1 enzyme activity test, human recombinant HDAC1 (BML-SE456) was used as an enzyme source, and Fluor de Lys®-“SIRT1 (BNL-KI177) was used as a substrate. A 5-fold dilution of the compound was seeded into a 96-well plate, and then 0.3 μg of the enzyme and 10 μM of the substrate were added to each well of the plate and allowed to react at 30° C. for 60 minutes. Then, Fluor de Lys®-Developer II (BML-KI176) was added thereto and allowed to react for 30 minutes, after which the fluorescence value (Ex 360, Em 460) was measured using a multi-plate reader (Flexstation 3, Molecular Device). The HDAC6 enzyme was tested using human recombinant HDAC6 (382180) (Calbiochem) according to the same protocol as the HDAC1 enzyme activity test method. Based on the resulting values, each IC50 value was calculated using GraphPad Prism4.0 program.

human recombinant HDAC1 = biological target: T2, human recombinant HDAC1 (Homo sapiens, UniProt Q13547); assay: HDAC1 enzyme activity inhibition assay (HDAC Fluorimetric Drug Discovery Kit); type: biochemical; conditions: human recombinant HDAC1, 10 μM substrate, 30° C. 60 minutes
T2 construct: purchased Enzo Life Science BML-SE456
Protocol: as §1, §2

T2 sequence (Q13547 whole entry): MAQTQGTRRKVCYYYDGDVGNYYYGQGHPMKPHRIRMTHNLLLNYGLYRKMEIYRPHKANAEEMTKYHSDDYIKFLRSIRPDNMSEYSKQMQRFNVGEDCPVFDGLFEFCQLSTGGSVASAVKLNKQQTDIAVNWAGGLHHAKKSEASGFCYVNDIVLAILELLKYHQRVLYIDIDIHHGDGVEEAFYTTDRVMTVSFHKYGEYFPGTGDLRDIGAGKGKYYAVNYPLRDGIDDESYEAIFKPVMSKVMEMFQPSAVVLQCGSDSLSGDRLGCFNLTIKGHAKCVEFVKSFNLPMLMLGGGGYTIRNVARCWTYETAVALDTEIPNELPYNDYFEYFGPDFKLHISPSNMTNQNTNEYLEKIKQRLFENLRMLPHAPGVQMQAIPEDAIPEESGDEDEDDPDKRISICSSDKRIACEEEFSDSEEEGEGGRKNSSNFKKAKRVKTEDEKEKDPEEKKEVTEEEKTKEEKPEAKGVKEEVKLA

Compound	IC50 (human recombinant HDAC6) [nM]	IC50 (human recombinant HDAC1) [nM]
FC(F)c1nnc(-c2cnc(NC3(c4ccccc4)CC3)nc2)o1 [Compound 1524, 5-(5-(difluoromethyl)-1,3,4-oxadiazol-2-yl)-N-(1-phenylcyclopropyl)pyrimidin-2-amine]	48	> 10000
FC(F)(F)c1nnc(-c2cnc(NC3(c4ccccc4)CC3)nc2)o1 [Compound 1526, N-(1-phenylcyclopropyl)-5-(5-(trifluoromethyl)-1,3,4-oxadiazol-2-yl)pyrimidin-2-amine]	179	> 10000
FC(F)c1nnc(-c2cnc(NC3(c4ccccc4)CCC3)nc2)o1 [Compound 1559, 5-(5-(difluoromethyl)-1,3,4-oxadiazol-2-yl)-N-(1-phenylcyclobutyl)pyrimidin-2-amine]	30	> 10000
FC(F)c1nnc(-c2cnc(NC3(c4ccccc4)CCCC3)nc2)o1 [Compound 1579, 5-(5-(difluoromethyl)-1,3,4-oxadiazol-2-yl)-N-(1-phenylcyclopentyl)pyrimidin-2-amine]	46	> 10000
FC(F)(F)c1nnc(-c2cnc(NC3(c4ccccc4)CCCC3)nc2)o1 [Compound 1580, N-(1-phenylcyclopentyl)-5-(5-(trifluoromethyl)-1,3,4-oxadiazol-2-yl)pyrimidin-2-amine]	305	> 10000
FC(F)c1nnc(-c2cnc(NC3(c4ccccc4)CCCCC3)nc2)o1 [Compound 1581, 5-(5-(difluoromethyl)-1,3,4-oxadiazol-2-yl)-N-(1-phenylcyclohexyl)pyrimidin-2-amine]	135	> 10000
FC(F)(F)c1nnc(-c2cnc(NC3(c4ccccc4)CCCCC3)nc2)o1 [Compound 1582, N-(1-phenylcyclohexyl)-5-(5-(trifluoromethyl)-1,3,4-oxadiazol-2-yl)pyrimidin-2-amine]	1250	> 10000
COc1ccc(C2(Nc3ncc(-c4nnc(C(F)F)o4)cn3)CCC2)cc1 [Compound 1603, 5-(5-(difluoromethyl)-1,3,4-oxadiazol-2-yl)-N-(1-(4-methoxyphenyl)cyclobutyl)pyrimidin-2-amine]	50	> 10000
COc1ccc(C2(Nc3ncc(-c4nnc(C(F)(F)F)o4)cn3)CCC2)cc1 [Compound 1604, N-(1-(4-methoxyphenyl)cyclobutyl)-5-(5-(trifluoromethyl)-1,3,4-oxadiazol-2-yl)pyrimidin-2-amine]	204	> 10000
COc1cccc(C2(Nc3ncc(-c4nnc(C(F)F)o4)cn3)CCC2)c1 [Compound 1605, 5-(5-(difluoromethyl)-1,3,4-oxadiazol-2-yl)-N-(1-(3-methoxyphenyl)cyclobutyl)pyrimidin-2-amine]	44	> 10000
COc1cccc(C2(Nc3ncc(-c4nnc(C(F)(F)F)o4)cn3)CCC2)c1 [Compound 1606, N-(1-(3-methoxyphenyl)cyclobutyl)-5-(5-(trifluoromethyl)-1,3,4-oxadiazol-2-yl)pyrimidin-2-amine]	168	> 10000
Fc1cccc(C2(Nc3ncc(-c4nnc(C(F)F)o4)cn3)CCC2)c1 [Compound 1607, 5-(5-(difluoromethyl)-1,3,4-oxadiazol-2-yl)-N-(1-(3-fluorophenyl)cyclobutyl)pyrimidin-2-amine]	32	> 10000
Fc1cccc(C2(Nc3ncc(-c4nnc(C(F)(F)F)o4)cn3)CCC2)c1 [Compound 1608, N-(1-(3-fluorophenyl)cyclobutyl)-5-(5-(trifluoromethyl)-1,3,4-oxadiazol-2-yl)pyrimidin-2-amine]	154	> 10000
Fc1ccccc1C1(Nc2ncc(-c3nnc(C(F)F)o3)cn2)CCC1 [Compound 1609, 5-(5-(difluoromethyl)-1,3,4-oxadiazol-2-yl)-N-(1-(2-fluorophenyl)cyclobutyl)pyrimidin-2-amine]	23	> 10000
Fc1ccccc1C1(Nc2ncc(-c3nnc(C(F)(F)F)o3)cn2)CCC1 [Compound 1610, N-(1-(2-fluorophenyl)cyclobutyl)-5-(5-(trifluoromethyl)-1,3,4-oxadiazol-2-yl)pyrimidin-2-amine]	151	> 10000
Fc1ccc(C2(Nc3ncc(-c4nnc(C(F)F)o4)cn3)CCC2)cc1 [Compound 1611, 5-(5-(difluoromethyl)-1,3,4-oxadiazol-2-yl)-N-(1-(4-fluorophenyl)cyclobutyl)pyrimidin-2-amine]	38	> 10000
Fc1ccc(C2(Nc3ncc(-c4nnc(C(F)(F)F)o4)cn3)CCC2)cc1 [Compound 1612, N-(1-(4-fluorophenyl)cyclobutyl)-5-(5-(trifluoromethyl)-1,3,4-oxadiazol-2-yl)pyrimidin-2-amine]	455	> 10000
FC(F)c1nnc(-c2cnc(NC3(c4ccccc4Cl)CCC3)nc2)o1 [Compound 1614, N-(1-(2-chlorophenyl)cyclobutyl)-5-(5-(difluoromethyl)-1,3,4-oxadiazol-2-yl)pyrimidin-2-amine]	29	> 10000
FC(F)c1nnc(-c2cnc(NC3(c4cccc(Cl)c4)CCC3)nc2)o1 [Compound 1615, N-(1-(3-chlorophenyl)cyclobutyl)-5-(5-(difluoromethyl)-1,3,4-oxadiazol-2-yl)pyrimidin-2-amine]	22	> 10000
FC(F)c1nnc(-c2cnc(NC3(c4ccc(Cl)cc4)CCC3)nc2)o1 [Compound 1616, N-(1-(4-chlorophenyl)cyclobutyl)-5-(5-(difluoromethyl)-1,3,4-oxadiazol-2-yl)pyrimidin-2-amine]	44	> 10000
FC(F)(F)c1nnc(-c2cnc(NC3(c4ccccc4Cl)CCC3)nc2)o1 [Compound 1617, N-(1-(2-chlorophenyl)cyclobutyl)-5-(5-(trifluoromethyl)-1,3,4-oxadiazol-2-yl)pyrimidin-2-amine]	211	> 10000
FC(F)(F)c1nnc(-c2cnc(NC3(c4ccc(Cl)cc4)CCC3)nc2)o1 [Compound 1618, N-(1-(4-chlorophenyl)cyclobutyl)-5-(5-(trifluoromethyl)-1,3,4-oxadiazol-2-yl)pyrimidin-2-amine]	267	> 10000
FC(F)c1nnc(-c2cnc(NC3(c4ccccn4)CCC3)nc2)o1 [Compound 1640, 5-(5-(difluoromethyl)-1,3,4-oxadiazol-2-yl)-N-(1-(pyridin-2-yl)cyclobutyl)pyrimidin-2-amine]	28	> 10000
FC(F)(F)c1nnc(-c2cnc(NC3(c4ccccn4)CCC3)nc2)o1 [Compound 1641, N-(1-(pyridin-2-yl)cyclobutyl)-5-(5-(trifluoromethyl)-1,3,4-oxadiazol-2-yl)pyrimidin-2-amine]	58	> 10000
FC(F)c1nnc(-c2cnc(NC3(c4cccc(C(F)(F)F)c4)CCC3)nc2)o1 [Compound 1642, 5-(5-(difluoromethyl)-1,3,4-oxadiazol-2-yl)-N-(1-(3-(trifluoromethyl)phenyl)cyclobutyl)pyrimidin-2-amine]	57	> 10000
Fc1ccc(C2(Nc3ncc(-c4nnc(C(F)F)o4)cn3)CC2)cc1F [Compound 1779, 5-(5-(difluoromethyl)-1,3,4-oxadiazol-2-yl)-N-(1-(3,4-difluorophenyl)cyclopropyl)pyrimidin-2-amine]	134	–
